Laboratory results as given in patent US6194383A, “Lipopeptides from actinoplanes sp. with pharmacological action, process for their production and the use thereof” (Hoechst Aktiengesellschaft, priority 1993, dated 2001).

Tests used:
Format in all cases: cell-based
[1] = test system: relevant organisms; assay: agar dilution test, MIC, in vitro activity (AB spectrum); conditions: Muller-Hinton agar, 37° C., 24 hours
Protocol: (§1) The sensitivity of relevant organisms to the A 1437 lipopeptides is determined by an agar dilution test. The agar used is Muller-Hinton agar to which, in the case of S. pyogenes and the Enterococci, 10% horse blood is added. The antibiotic-containing plates are inoculated using a multichannel inoculator (5×10^4 cfu/inoculation site of a stationary culture of the particular strain). The MIC values (minimum inhibitory concentration) are read off at 37° C. The MIC is defined as the concentration of the antibiotic at which no visible growth of the organisms is detectable after incubation for 24 hours. The amphomycin used as control was obtained from Boehringer Mannheim (Germany). Amphomycin can be obtained as fine chemical therefrom.

[2] = test system: Streptococcus pyogenes; assay: agar dilution test, MIC, vancomycin-resistant strains table; conditions: Muller-Hinton agar with 10% horse blood, 37° C., 24 hours
Protocol: as §1

[3] = test system: Enterococcus faecium VR2; assay: agar dilution test, MIC, vancomycin-resistant strains; conditions: Muller-Hinton agar with 10% horse blood, 37° C., 24 hours
Protocol: as §1

[4] = test system: Enterococcus faecium VR1; assay: as above; conditions: Muller-Hinton agar with 10% horse blood, 37° C., 24 hours
Protocol: as §1

[5] = 1st of 6 value columns, strain not given
[6] = 2nd of 6 value columns, strain head not printed
[7] = 3rd of 6 value columns, strain not given
[8] = 4th of 6 value columns, strain not given
[9] = 5th of 6 value columns, strain not given
[10] = 6th of 6 value columns, strain head not printed

Row | Substance | MIC, in vitro activity (AB spectrum), concentration [1, 5] | MIC, in vitro activity (AB spectrum), concentration [1, 6] | MIC, in vitro activity (AB spectrum), concentration [1, 7] | MIC, in vitro activity (AB spectrum), concentration [1, 8] | MIC, in vitro activity (AB spectrum), concentration [1, 9] | MIC, in vitro activity (AB spectrum), concentration [1, 10] | MIC, in vitro activity (vancomycin-resistant strains), concentration [2] | MIC, in vitro activity (vancomycin-resistant strains), concentration [3] | MIC, in vitro activity (vancomycin-resistant strains), concentration [4]
1 | aiC15 -fatty acid-Asn-Dab-Pip-MeAsp-Asp-Gly-Asp-Gly-Dab-Val-Pro [A 1437 H] | 0.049 µg/mL | 0.098 µg/mL | 0.049 µg/mL | 0.195 µg/mL | 0.049 µg/mL | 0.195 µg/mL | 0.5 µg/mL | 1 µg/mL | 1 µg/mL
2 | Amphomycin [reference compound] | 0.195 µg/mL | 0.781 µg/mL | 0.391 µg/mL | 1.56 µg/mL | 0.391 µg/mL | 1.56 µg/mL | 2 µg/mL | 4 µg/mL | 4 µg/mL
3 | iC13 -fatty acid-Asp-Dab-Pip-MeAsp-Asp-Gly-Asp-Gly-Dab-Val-Pro [A 1437 A] | 0.391 µg/mL | 0.781 µg/mL | 0.391 µg/mL | 1.56 µg/mL | 0.391 µg/mL | 3.13 µg/mL |  |  | 
4 | ic13 -fatty acid-Asn-Dab-Pip-MeAsp-Asp-Gly-Asp-Gly-Dab-Val-Pro [A 1437 C] | 0.195 µg/mL | 0.781 µg/mL | 0.391 µg/mL | 3.13 µg/mL | 0.781 µg/mL | 3.13 µg/mL | 4 µg/mL | 4 µg/mL | 4 µg/mL
5 | aiC15 -fatty acid-Asp-Dab-Pip-MeAsp-Asp-Gly-Asp-Gly-Dab-Val-Pro [A 1437 G] | 0.098 µg/mL | 0.195 µg/mL | 0.049 µg/mL | 0.088 µg/mL | 0.025 µg/mL | 0.195 µg/mL | 0.125 µg/mL | 0.25 µg/mL | 0.25 µg/mL
6 | aiC13 -fatty acid-Asn-Dab-Pip-MeAsp-Asp-Gly-Asp-Gly-Dab-Val-Pro [A 1437 F] | 0.098 µg/mL | 0.391 µg/mL | 0.195 µg/mL | 1.56 µg/mL | 0.781 µg/mL | 1.56 µg/mL | 1 µg/mL | 4 µg/mL | 4 µg/mL
7 | iC14 -fatty acid-Asn-Dab-Pip-MeAsp-Asp-Gly-Asp-Gly-Dab-Val-Pro [A 1437 D] | 0.049 µg/mL | 0.195 µg/mL | 0.049 µg/mL | 0.781 µg/mL | 0.391 µg/mL | 0.781 µg/mL | 1 µg/mL | 2 µg/mL | 2 µg/mL
8 | iC14 -fatty acid-Asp-Dab-Pip-MeAsp-Asp-Gly-Asp-Gly-Dab-Val-Pro [A 1437 B] | 0.098 µg/mL | 0.195 µg/mL | 0.098 µg/mL | 0.195 µg/mL | 0.049 µg/mL | 0.391 µg/mL | 0.5 µg/mL | 1 µg/mL | 1 µg/mL
